Patent US20090221559A1 (priority 2005, published 2009)
Read-outs that look alike come from different tables or passages of the source.

How the values were obtained:
[1] = molecular target: T1, HCV NS5B polymerase (His-tagged, C-terminal 21 amino acid deleted NS5B, HC-J4) (Hepatitis C virus genotype 1b, UniProt O92972); assay: NS5b polymerase assay (biochemical RdRp assay, 3H-GTP incorporation, SPA beads); set-up: species or system HCV genotype 1b
T1 construct: The cDNA encoding NS5B amino acid 1-570 (HC-J4, genotype 1b); His tag (His6, from pET-21b) (C); made in house; host or cells: E. coli BL21 (DE3)
Outline: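 His-tagged C-terminal-21-aa-deleted NS5B (genotype 1b, HC-J4) at 200 nM was preincubated 15 min at RT with compound on 5′-biotinylated oligo(rG13)/poly(rC) template/primer before NTPs. Reaction with 600 nM GTP plus 0.1 μCi 3H-GTP and 5 mM MgCl2 in Tris pH 7.5 ran 2 h at 25 °C. Stopped with EDTA/SPA beads for incorporation counting.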

[2] = system: HCV replicon RNA replication in Huh-7 luc/neo (Huh-Luc) cells; assay: HCV replicon assay (stable replicon cell reporter assay, luciferase read-out); format: cell-based, HCV type 1b; details: Hepatitis C virus, Huh-7, 72 h
Outline: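 Huh-7 cells stably carry a bicistronic HCV 1b NS3-NS5B subgenomic replicon with firefly luciferase and neo markers. Cells were plated with compound across a concentration range and incubated three days. Replication was measured as luciferase activity to give dose-response curves.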

[3] = NS5B Polymerase Assay IC50, 200 nM enzyme, 3H-GTP incorporation, 2 h at 25° C.
[4] = read-out: Replicon Assay EC50, Huh-Luc cells, three days incubation, luciferase activity
[5] = NS5B Polymerase Assay IC50 (μM)
[6] = read-out: Replicon Assay EC50 (μM), Huh-Luc cells, incubation of three days, luciferase activity

T1 sequence (O92972 2417-3000, looked up, stated change not applied): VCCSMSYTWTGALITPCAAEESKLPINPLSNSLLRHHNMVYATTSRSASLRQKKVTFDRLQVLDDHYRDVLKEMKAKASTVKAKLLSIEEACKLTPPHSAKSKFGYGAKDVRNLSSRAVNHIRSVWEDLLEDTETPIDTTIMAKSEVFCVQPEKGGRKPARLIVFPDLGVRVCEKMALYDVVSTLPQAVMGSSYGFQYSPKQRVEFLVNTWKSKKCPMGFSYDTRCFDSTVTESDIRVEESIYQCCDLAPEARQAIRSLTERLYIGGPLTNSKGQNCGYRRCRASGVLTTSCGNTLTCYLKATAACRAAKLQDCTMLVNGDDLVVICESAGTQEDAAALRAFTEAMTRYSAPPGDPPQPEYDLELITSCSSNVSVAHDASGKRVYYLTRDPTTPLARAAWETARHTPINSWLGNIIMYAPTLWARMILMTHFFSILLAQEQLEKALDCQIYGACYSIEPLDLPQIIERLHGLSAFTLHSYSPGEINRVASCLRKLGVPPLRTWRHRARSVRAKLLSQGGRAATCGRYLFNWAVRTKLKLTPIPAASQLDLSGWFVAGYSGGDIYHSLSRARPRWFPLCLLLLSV

Compound | IC50 [1, 3] [µM] | melting point [°C] | EC50 [2, 4] [µM] | IC50 [1, 5] [µM] | EC50 [2, 6] [µM]
CC(=O)N1c2ccccc2NC2=C(C(=O)CC(C)(C)C2)C1c1ccc(C(F)(F)F)cc1 (stereo not drawn) [compound 120] | > 133 | > 250 | 31.8 | – | –
CC(=O)N1c2ccccc2NC2=C(C(=O)CC(C)(C)C2)C1c1ccc(OCc2ccccc2)c(Cl)c1 (stereo not drawn) [compound 139, 10-acetyl-11-[4-benzyloxy-3-chlorophenyl]-3,3-dimethyl-2,3,4,5,10,11-hexahydro-1H-dibenzo[b,e][1,4]diazepin-1-one] | 1.01 | 197 | 2.9 | – | –
CC1(C)CC(=O)C2=C(C1)Nc1ccccc1N(C(=O)CC#N)C2c1ccc(Cl)cc1Cl (stereo not drawn) [compound 151] | 1.25 | > 260 | 18.4 | – | –
CC1(C)CC(=O)C2=C(C1)Nc1ccccc1N(C(=O)CCc1ccccc1)C2c1ccc(Cl)cc1Cl (stereo not drawn) [compound 152] | 24.1 | 242 | 2.5 | – | –
CC1(C)CC(=O)C2=C(C1)Nc1ccccc1N(C(=O)c1ccco1)C2c1ccc(Cl)cc1Cl (stereo not drawn) [compound 153] | 4.05 | > 260 | 18.6 | – | –
CC1(C)CC(=O)C2=C(C1)Nc1ccccc1N(C(=O)Cc1ccccc1)C2c1ccc(Cl)cc1Cl (stereo not drawn) [compound 154] | 123 | > 260 | 5.46 | – | –
CC(C)NC(=O)N1c2ccccc2NC2=C(C(=O)CC(C)(C)C2)C1c1ccc(Cl)cc1Cl (stereo not drawn) [compound 156] | 5.15 | > 260 | 6.69 | – | –
CN(C)c1ccc(NC(=O)N2c3ccccc3NC3=C(C(=O)CC(C)(C)C3)C2c2ccc(Cl)cc2Cl)cc1 (stereo not drawn) [compound 157] | 29.5 | 238 | 1.95 | – | –
CC(=O)N1c2c(Br)cccc2NC2=C(C(=O)CC(C)(C)C2)C1c1ccc(Cl)cc1Cl (stereo not drawn) [compound 311] | 13.3 | > 260 | 4.03 | – | –
CC(=O)N1c2c(C#N)cccc2NC2=C(C(=O)CC(C)(C)C2)C1c1ccc(Cl)cc1Cl (stereo not drawn) [compound 313] | 6.04 | 248 | 27.5 | – | –
CC(=O)N1c2cccc(C)c2NC2=C(C(=O)CC(C)(C)C2)C1c1ccc(Cl)cc1Cl (stereo not drawn) [compound 315] | 4.78 | > 260 | 14.6 | – | –
CC(=O)N1c2ccc(C(=O)NCCN3CCOCC3)cc2NC2=C(C(=O)CC(C)(C)C2)C1c1ccc(Cl)cc1Cl (stereo not drawn) [compound 321, 10-acetyl-N-(morpholin-4-ylethyl)-11-(2,4-dichlorophenyl)-3,3-dimethyl-1-oxo-2,3,4,5,10,11-hexahydro-1H-dibenzo[b,e][1,4]diazepine-7-carboxamide] | > 133 | > 260 | 72.2 | – | –
CC(=O)N1c2ccccc2N(Cc2ccccc2)C2=C(C(=O)CC(C)(C)C2)C1c1ccc(Cl)cc1Cl (stereo not drawn) [compound 323] | 53.8 | 235 | 1.65 | – | –
Cc1cccc2c1NC(c1ccc(Cl)cc1Cl)C1=C(CC(C)(C)CC1=O)N2 (stereo not drawn) [compound 469] | – | 235 | – | 32.3 | 8.24
CC1(C)CC(=O)C2=C(C1)Nc1cccc(C#N)c1NC2c1ccc(Cl)cc1Cl (stereo not drawn) [compound 470] | – | 225 | – | 23.3 | 16.5
Cc1cccc2c1NC1=C(C(=O)CC(C)(C)C1)C(c1ccc(Cl)cc1Cl)N2 (stereo not drawn) [compound 471] | – | 225 | – | > 133 | 14.7
CC1(C)CC(=O)C2=C(C1)Nc1c(N)cccc1NC2c1ccc(Cl)cc1Cl (stereo not drawn) [compound 474] | – | 248 | – | 1.72 | 34.1
